Source: ChEMBL document CHEMBL5042512 (Eur J Med Chem, 2022)
Activity calls are given as the source filed them. The rule behind the calls is not given here.

Legend:
KYSE-450 [1] = assay: Induction of mitochondrial membrane potential loss in human KYSE-450 cells assessed as downregulation of Bcl-2 protein at 80 to 100 nM measured after 48 hrs by western blot analysis; assay type: functional, cell-based; details: dose 80-100 nM
KYSE-450 [2] = assay: Induction of mitochondrial membrane potential loss in human KYSE-450 cells assessed as decrease in XIAP level at 80 to 100 nM measured after 48 hrs by western blot analysis; assay type: functional, cell-based; details: dose 80-100 nM
KYSE-450 [3] = assay: Antiproliferative activity against human KYSE-450 cells assessed as cell growth inhibition measured after 48 hrs by CCK8 assay; assay type: functional, cell-based; details: KYSE-450, 48 h
KYSE-30 [4] = assay: Induction of mitochondrial membrane potential loss in human KYSE-30 cells assessed as downregulation of Bcl-2 protein at 80 to 100 nM measured after 48 hrs by western blot analysis; assay type: functional, cell-based; details: dose 80-100 nM
KYSE-450 [5] = assay: Induction of apoptosis in human KYSE-450 cells assessed as apoptotic cells at 100 nM measured after 48 hrs by annexin-V-FITC and PI staining based flow cytometry analysis (reference value: 8.1667 %); assay type: functional
KYSE-30 [6] = assay: Antiproliferative activity against human KYSE-30 cells assessed as cell viability measured after 48 hrs by CCK8 assay; assay type: functional, cell-based; details: KYSE-30, 48 h
Tubulin (Homo sapiens) = Tubulin (Homo sapiens) (UniProt P68371+Q9H4B7+P0DPH7+P68366+Q13509+Q71U36+P04350+Q3ZCM7+P07437+P68363+Q9BQE3+Q6PEY2+Q13885+Q9BVA1+Q9BUF5); assay: Inhibition of tubulin polymerization in human KYSE-450 cells assessed as microtubule assembly at 0.1 uM measured after 48 hrs by immunofluorescence assay; assay type: cell-based
Sus scrofa = species on record: Sus scrofa; assay: Inhibition of pig brain tubulin polymerization at 3 uM by spectrophotometry
KYSE-30 [7] = assay: Down regulation of CDK1 protein expression in human KYSE-30 cells at 80 to 100 nM for 48 hrs by western blot analysis; assay type: functional, cell-based; details: dose 80-100 nM
KYSE-450 [8] = assay: Induction of mitochondrial membrane potential loss in human KYSE-450 cells assessed as Bak expression at 80 to 100 nM measured after 48 hrs by western blot analysis; assay type: functional, cell-based; details: dose 80-100 nM
KYSE-450 [9] = assay: Induction of mitochondrial membrane potential loss in human KYSE-450 cells assessed as upregulation of Bax protein at 80 to 100 nM measured after 48 hrs by western blot analysis; assay type: functional, cell-based; details: dose 80-100 nM
KYSE-450 [10] = assay: Induction of apoptosis in human KYSE-450 cells assessed as apoptotic cells at 80 nM measured after 48 hrs by annexin-V-FITC and PI staining based flow cytometry analysis (reference value: 8.1667 %); assay type: functional

COc1ccc(CN(C(=O)CSC(=S)N2CCN(C(=O)OC(C)(C)C)CC2)c2cc(OC)c(OC)c(OC)c2)cc1O
Activity (KYSE-450 [1]): Dose-Dependent Effect | Activity (KYSE-450 [2]): Dose-Dependent Effect | IC50 (KYSE-450 [3]): 0.076 µM | Activity (KYSE-30 [4]): Dose-Dependent Effect | Activity (KYSE-450 [5]): 57.3667% | IC50 (KYSE-30 [6]): 0.069 µM | inhibition (Tubulin (Homo sapiens)): Active | inhibition (Sus scrofa): Active | Activity (KYSE-30 [7]): Dose-Dependent Effect | Activity (KYSE-450 [8]): inactive | Activity (KYSE-450 [9]): Dose-Dependent Effect | Activity (KYSE-450 [10]): 34.0333%
